Measured values published in patent publication US20190183812A1, “Compounds For The Treatment Of Neuromuscular Disorders” (NMD PHARMA A/S, priority 2017, published 2019).

Tests used:
[1] = tested on: Lewis rats; test: In situ muscle contractile characteristics: isometric hindlimb force under cisatracurium infusion; assay type: in vivo, rat; conditions: 21.5 mg/kg i.v.; 12 Hz; 3 experiments
Procedure: Isometric hindlimb force was measured in 12-week old female Lewis rats in the presence and absence of compound.
Rats were placed under anesthesia with isoflurane (2-4%), intubated and subsequently connected to a micro ventilator (Microvent 1, Hallowell EMC, US). Two stimulation electrodes were inserted through the skin to stimulate the sciatic nerve. A small incision was made proximal to the ankle, to expose the Achilles tendon, which was tied by cotton string, and connected to a force transducer (Fort250, World Precision Instruments) with adjustable position (Vernier control). The Achilles tendon was then cut distal to the attached cotton string. […]
Muscle contractile properties were assessed by applying an electrical current (under supramaximal voltage conditions) to the nerve and recording the force generated by the muscle. The muscle was stretched until maximal force was obtained, when assessed by 2 Hz stimulation. Isometric force was measured every 30 seconds at 12 Hz (Twitch), 10 pulses, and at every 5 minutes at 80 Hz (Tetanic) for 1 second (80 pulses). […] The effect of test article was assessed on its ability to increase force generated from the stimulation pattern applied. The effect was assessed in the ability to increase force per se (tetanic, 80 Hz, stimulation), and the ratio between individual twitch peaks (12 Hz stimulation). […]

[2] = molecular target: T1, human CIC-1 channels (Homo sapiens, UniProt P35523); test: Automated patch-clamp on human CIC-1 expressed in CHO cells; assay type: cell-based; conditions: compound added to the intracellular solution vs vehicle control patches; positive shift reflects CIC-1 inhibition
T1 construct: host or cells: CHO (Chinese hamster ovary) cells
T1 sequence (P35523 whole entry): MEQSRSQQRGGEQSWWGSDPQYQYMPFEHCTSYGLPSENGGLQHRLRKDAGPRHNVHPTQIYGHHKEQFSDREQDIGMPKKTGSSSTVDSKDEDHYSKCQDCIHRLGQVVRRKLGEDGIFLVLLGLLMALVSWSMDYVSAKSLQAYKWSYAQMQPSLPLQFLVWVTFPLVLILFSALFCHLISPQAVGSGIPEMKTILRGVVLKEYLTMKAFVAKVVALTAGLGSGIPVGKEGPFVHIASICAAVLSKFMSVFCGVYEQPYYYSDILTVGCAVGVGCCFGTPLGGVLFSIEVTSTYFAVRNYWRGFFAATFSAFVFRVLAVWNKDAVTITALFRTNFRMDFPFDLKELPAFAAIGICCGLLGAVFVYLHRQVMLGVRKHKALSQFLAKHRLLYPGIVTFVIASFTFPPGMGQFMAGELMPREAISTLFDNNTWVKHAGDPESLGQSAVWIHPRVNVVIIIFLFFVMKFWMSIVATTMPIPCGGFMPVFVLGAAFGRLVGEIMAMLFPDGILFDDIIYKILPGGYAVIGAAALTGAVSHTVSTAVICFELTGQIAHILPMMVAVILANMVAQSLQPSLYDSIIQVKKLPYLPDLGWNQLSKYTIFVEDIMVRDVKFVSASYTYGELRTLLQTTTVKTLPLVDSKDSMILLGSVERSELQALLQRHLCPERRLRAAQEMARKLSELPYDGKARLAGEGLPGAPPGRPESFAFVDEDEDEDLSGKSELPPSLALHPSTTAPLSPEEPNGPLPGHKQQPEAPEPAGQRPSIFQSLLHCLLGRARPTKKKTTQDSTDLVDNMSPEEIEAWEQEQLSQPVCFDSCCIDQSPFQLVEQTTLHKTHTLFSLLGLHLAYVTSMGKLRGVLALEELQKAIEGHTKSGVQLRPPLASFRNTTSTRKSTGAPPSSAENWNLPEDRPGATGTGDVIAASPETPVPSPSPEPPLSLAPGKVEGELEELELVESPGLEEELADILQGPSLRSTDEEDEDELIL
Procedure: The investigatory goal of these experiments was to evaluate how compounds affect the open probability and current amplitude of human CIC-1 channels expressed in CHO cells. Experiments were performed using an automated patch clamp system that allowed high throughput testing of whole cell patches together with both intracellular and extracellular addition of compound.
Automated whole cell patch clamp experiments were performed with the Qpatch 16 system (Sophion Bioscience, Ballerup, Denmark) at room temperature. Data acquisition and analysis were performed in the Qassay software (ver. 5.6, Odense).
To evoke CIC-1 currents in whole cell patches, the membrane potential was initially stepped from a holding potential of −30 mV to +60 mV for 100 ms and then to various test voltages (sweeps) ranging from +120 mV to −140 mV in steps of 20 mV for 300 ms. To obtain tail currents, the membrane potential was stepped to −100 mV after each test voltage for 300 ms and then relaxed to −30 mV for 2 sec between sweeps (FIG. 3). I/V relationships for whole cell instant and steady state current amplitudes were obtained by plotting average current densities at the beginning and at the end of the 300 ms step against the membrane potential (FIG. 4).
In order to determine the relative overall open probability (P0), the instantaneous tail currents were normalized to the maximal tail current obtained following the most positive voltage step and plotted against the test voltage. Plots of normalized tail currents from each whole cell patch were then fitted to a Boltzmann function allowing determination of half activation voltages (V1/2, FIG. 5).
For automated patch clamp experiments extracellular solutions contained: 2 mM CaCl2, 1 mM MgCl2, 10 mM HEPES, 4 mM KCl, 145 mM NaCl, 10 mM Glucose, pH adjusted to 7.4 with NaOH (2 M). Osmolality adjusted to ˜320 using sucrose.
Intracellular solutions contained: 80 mM CsF, 60 mM CsCl, 5/1 mM KOH/EGTA, 10 mM HEPES, 10 mM NaCl, pH adjusted to 7.2 with NaOH (2 M). Osmolality adjusted to ˜320 mOsm using sucrose.
Cells used in patch clamp experiments were Chinese hamster ovary cells (CHO) constitutively expressing human CIC-1 channels. The amino acid sequence encoded by the cDNA used to create this cell line was identical to the translated sequence for GenBank accession number NM_000083.2. Cells were produced by Charles River (Catalogue CT6175, Cleveland Ohio, USA) in a cryopreserved format. Experiments were performed on the cells directly after thawing (3×10^6 cells used in each experiment).
To evaluate the compound effect on CIC-1, when applied directly to the intracellular side of the cell membrane, the half activation voltage, V1/2, was determined from whole cell patches with compound added to the intracellular solution and then compared to V1/2 determined from control cell patches with only vehicle added to the intracellular solution. Additionally, the effect of extracellular added compound was evaluated by determine V1/2 and steady state current amplitudes before and after exchanging the extracellular solution to contain compound.
The difference in half activation voltage of CIC-1 channels, […]V1/2, was determined as the difference between the cell patches treated intracellularly with compound and control cells patches and is reported in Table 4 below. A positive shift in […]V1/2 is reflecting CIC-1 channel inhibition by the tested compound. P-values of <0.05 is considered significant.

[3] = molecular target: T2, CIC-1 ion channels (Rattus norvegicus, UniProt P35524); test: Resting membrane conductance (Gm), three-electrode technique, rat muscle: Kd for CIC-1 inhibition; assay type: cell-based; conditions: concentration that reduced Gm by 50%
T2 construct: from tissue; host or cells: soleus muscle of adult (12-14 week old) Wistar rats
T2 sequence (P35524 1-994): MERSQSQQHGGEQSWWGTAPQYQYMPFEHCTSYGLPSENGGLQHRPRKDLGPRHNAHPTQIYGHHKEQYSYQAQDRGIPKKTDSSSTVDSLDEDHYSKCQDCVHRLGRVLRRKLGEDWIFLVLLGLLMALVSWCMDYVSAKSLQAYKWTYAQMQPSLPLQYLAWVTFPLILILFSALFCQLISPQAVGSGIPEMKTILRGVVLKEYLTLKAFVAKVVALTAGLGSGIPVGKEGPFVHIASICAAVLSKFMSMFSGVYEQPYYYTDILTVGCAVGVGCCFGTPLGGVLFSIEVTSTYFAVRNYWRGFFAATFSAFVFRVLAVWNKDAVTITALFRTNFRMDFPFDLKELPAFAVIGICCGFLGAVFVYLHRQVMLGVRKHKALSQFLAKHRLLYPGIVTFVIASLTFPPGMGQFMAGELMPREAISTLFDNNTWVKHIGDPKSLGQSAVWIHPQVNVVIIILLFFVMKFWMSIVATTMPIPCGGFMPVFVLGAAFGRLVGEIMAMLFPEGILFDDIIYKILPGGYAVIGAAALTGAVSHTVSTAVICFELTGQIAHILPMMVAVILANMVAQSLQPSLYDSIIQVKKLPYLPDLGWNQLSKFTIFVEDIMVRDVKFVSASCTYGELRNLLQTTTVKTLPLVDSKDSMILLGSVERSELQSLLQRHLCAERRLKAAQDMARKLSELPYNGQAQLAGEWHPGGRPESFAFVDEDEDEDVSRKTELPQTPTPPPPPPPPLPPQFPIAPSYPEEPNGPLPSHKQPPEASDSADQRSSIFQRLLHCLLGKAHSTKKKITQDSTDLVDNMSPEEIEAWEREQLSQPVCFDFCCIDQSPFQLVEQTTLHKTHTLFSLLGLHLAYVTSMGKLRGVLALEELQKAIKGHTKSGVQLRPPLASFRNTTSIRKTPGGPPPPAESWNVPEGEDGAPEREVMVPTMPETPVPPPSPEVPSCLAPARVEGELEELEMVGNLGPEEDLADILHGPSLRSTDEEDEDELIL

[4] = tested on: isolated rat soleus muscles; test: Recovery of nerve-stimulated force in isolated rat soleus muscles exposed to sub-maximal tubocurarine; conditions: Rattus norvegicus, 40 min; read-out: 50 μM % change after addition
Procedure: Experiments were performed using rat soleus muscles from either young (4-wk-old) or adult Wistar rats (12-14-week-old). Animal handling, killing and isolation of muscle is described elsewhere All experiments were performed using normal Krebs-Ringer bicarbonate solution (NKR). In solutions with elevated Mg^2+, MgCl2 was added to NKR-solution causing minor increases in osmolarity and ionic strength. In solutions with elevated K^+, 4 mM NaCl was replaced by 4 mM KCl in the NKR.
In all contraction experiments, isometric force production was determined and force produced during contractions was quantified by measuring the integral of the force response (AUC). Stimulation and force recordings have been described elsewhere. […] In these latter experiments, extracellular recordings of action potentials (M-waves) could be measured without temporal overlap with stimulation artefacts.
The aim was to find compounds that by inhibition of CIC-1 channels can recover nerve-stimulated force under conditions of fatigue including conditions where fatigue is caused by compromised neuromuscular transmission. Neuromuscular transmission dysfunction can develop because of both pre- and/or post-synaptic complications in connection with a disorder or as part of neuromuscular blockade during/after surgery. In the initial series of drug testing, experiments were performed with isolated muscles in the presence of sub-maximal ACh receptor antagonist tubocurarine. Since the inclusion of tubocurarine caused a partial loss of neuromuscular transmission this experiment mimics the conditions in myasthenia gravis and neuromuscular blockade. To mimic conditions with pre-synaptic complication (Lambert Eaton syndrome, motor neuron disorder, polyneuropathy) the intact nerve-muscle preparations were incubated at elevated extracellular Mg^2+, which is known to suppress release of ACh from nerve terminals of motor neurons.
To identify CIC-1 inhibitors that could be used for treatment of neuromuscular disorders we repeated the experiment shown in FIG. 2A but instead of adding 9-AC we added the compounds of interest in different concentrations within the range from 10 to 500 μM. […] For comparison with the muscle only exposed to tubocurarine (grey trace), the two traces have been overlaid. […] For comparison, muscles only exposed to tubocurarine have been included. The dotted line indicates the recovery of force with C8 when compared to the force production before its addition. This value was used in Table 1 for evaluation of the efficacy of the different compounds in recovering force.

Row | ΔV½ [2] [mV] | Kd [3] [µM] | SMILES | change in twitch peaks [1] | activation at 50 µM [4] [%]
1 | 9.2 | – | C[C@H](Oc1ccc(Br)cc1C1CC1)C(=O)O [Compound A-2, (2S)-2-(4-bromo-2-cyclopropylphenoxy)propanoic acid] | no significant change | –
2 | – | 4.1 | CC(C)[C@H](Oc1ccc(Br)cc1)C(=O)O [Compound C22, (2S)-2-(4-bromophenoxy)-3methylbutanoic acid] | – | 16
